Converted amounts (≈) assume the structure as drawn.
What was measured:
Type in all cases: functional
Pichia kudriavzevii = assay: Antifungal activity against Candida krusei
Candida parapsilosis [1] = assay: Antifungal activity against Candida parapsilosis; conditions: Lodderomyces parapsilosis
Candida tropicalis [2] = assay: Antifungal activity against Candida tropicalis; conditions: Candida tropicalis
Cryptococcus neoformans [3] = assay: Antifungal activity against Cryptococcus neoformans; conditions: Cryptococcus neoformans
Candida albicans [4] = assay: Antifungal activity against Candida albicans; conditions: Candida albicans
Cryptococcus neoformans [5] = assay: Potency index, ratio of fluconazole MIC to test compound MIC for activity against Cryptococcus neoformans ATCC 32609
Aspergillus fumigatus [6] = assay: Antifungal activity against Aspergillus fumigatus after 24 hrs by microbroth dilution method
Fonsecaea compacta [7] = assay: Antifungal activity against Fonsecaea compacta after 24 hrs by microbroth dilution method
Microsporum canis [8] = assay: Antifungal activity against Microsporum canis after 24 hrs by microbroth dilution method
Candida tropicalis [9] = assay: Antifungal activity against Candida tropicalis after 24 hrs by microbroth dilution method
Trichophyton rubrum [10] = assay: Potency index, ratio of fluconazole MIC to test compound MIC for Trichophyton rubrum
Fonsecaea compacta [11] = assay: Potency index, ratio of fluconazole MIC to test compound MIC for Fonsecaea compacta
Candida tropicalis [12] = assay: Potency index, ratio of fluconazole MIC to test compound MIC for Candida tropicalis
Trichophyton rubrum [13] = assay: Antifungal activity against Trichophyton rubrum after 24 hrs by microbroth dilution method
Aspergillus fumigatus [14] = assay: Potency index, ratio of fluconazole MIC to test compound MIC for Aspergillus fumigatus
Candida albicans [15] = assay: Potency index, ratio of fluconazole MIC to test compound MIC for Candida albicans ATCC 76615
Microsporum canis [16] = assay: Potency index, ratio of fluconazole MIC to test compound MIC for Microsporum canis
Candida albicans [17] = assay: Antifungal activity against fluconalzole-susceptible Candida albicans after 24 hrs
Candida parapsilosis [18] = assay: Antifungal activity against fluconalzole-susceptible Candida parapsilosis after 24 hrs; conditions: Lodderomyces parapsilosis
Aspergillus fumigatus [19] = assay: Antifungal activity against Aspergillus fumigatus; conditions: Aspergillus fumigatus; read-out: MIC

| Compound | MIC80 (Pichia kudriavzevii) [µg/mL] | MIC80 (Candida parapsilosis [1]) [µg/mL] | MIC80 (Candida tropicalis [2]) [µg/mL] | MIC80 (Cryptococcus neoformans [3]) [µg/mL] | MIC80 (Candida albicans [4]) [µg/mL] | Ratio (Cryptococcus neoformans [5]) | MIC80 (Aspergillus fumigatus [6]) [µg/mL] | MIC80 (Fonsecaea compacta [7]) [µg/mL] | MIC80 (Microsporum canis [8]) [µg/mL] | MIC80 (Candida tropicalis [9]) [µg/mL] | Ratio (Trichophyton rubrum [10]) | Ratio (Fonsecaea compacta [11]) | Ratio (Candida tropicalis [12]) | MIC80 (Trichophyton rubrum [13]) [µg/mL] | Ratio (Aspergillus fumigatus [14]) | Ratio (Candida albicans [15]) | Ratio (Microsporum canis [16]) | further results |
| --- | --- | --- | --- | --- | --- | --- | --- | --- | --- | --- | --- | --- | --- | --- | --- | --- | --- | --- |
| CN(CC(=O)Nc1ccc(Br)cc1)CC(O)(Cn1cncn1)c1ccc(F)cc1F (configuration not stated) | 0.25 to 1 (≈ 0.52 to 2.08 µM) | 0.25 to 1 (≈ 0.52 to 2.08 µM) | 0.25 to 1 (≈ 0.52 to 2.08 µM) | 0.0156 (≈ 0.0325 µM) | 0.0156 (≈ 0.0325 µM) | – | – | – | – | – | – | – | – | – | – | – | – | – |
| COc1cccc(NC(=O)CN(C)CC(O)(Cn2cncn2)c2ccc(F)cc2F)c1 (configuration not stated) | 0.25 to 1 (≈ 0.579 to 2.32 µM) | 0.25 to 1 (≈ 0.579 to 2.32 µM) | 0.25 to 1 (≈ 0.579 to 2.32 µM) | 0.0156 (≈ 0.0362 µM) | 0.0156 (≈ 0.0362 µM) | – | – | – | – | – | – | – | – | – | – | – | – | – |
| OC(CN(Cc1ccccc1Br)C1CC1)(Cn1cncn1)c1ccc(F)cc1F (configuration not stated) | – | – | – | – | – | 4 | 0.125 (≈ 0.27 µM) | 0.125 (≈ 0.27 µM) | 0.125 (≈ 0.27 µM) | 0.125 (≈ 0.27 µM) | 4 | 4 | 4 | 0.125 (≈ 0.27 µM) | 4 | 4 | 4 | – |
| OC(Cn1cncn1)(Cn1cnc(SCc2ccc(Cl)cc2)n1)c1ccc(F)cc1F (configuration not stated) | – | – | – | – | – | – | – | – | – | – | – | – | – | – | – | – | – | MIC (Candida albicans [17]): 0.063 to 1 µg/mL (≈ 0.136 to 2.16 µM); MIC (Candida parapsilosis [18]): 0.063 to 1 µg/mL (≈ 0.136 to 2.16 µM) |
| CN(CC(=O)Nc1ccccc1)CC(O)(Cn1cncn1)c1ccc(F)cc1F (configuration not stated) | 0.25 to 1 (≈ 0.623 to 2.49 µM) | 0.25 to 1 (≈ 0.623 to 2.49 µM) | 0.25 to 1 (≈ 0.623 to 2.49 µM) | 0.0156 (≈ 0.0389 µM) | 0.0156 (≈ 0.0389 µM) | – | – | – | – | – | – | – | – | – | – | – | – | – |
| CN(CC(=O)Nc1ccc(OC(F)(F)F)cc1)CC(O)(Cn1cncn1)c1ccc(F)cc1F (configuration not stated) | 0.25 to 1 (≈ 0.515 to 2.06 µM) | 0.25 to 1 (≈ 0.515 to 2.06 µM) | 0.25 to 1 (≈ 0.515 to 2.06 µM) | 0.0156 (≈ 0.0321 µM) | 0.0156 (≈ 0.0321 µM) | – | – | – | – | – | – | – | – | – | – | – | – | – |
| OC(CN(Cc1ccc(Cl)cc1)C1CC1)(Cn1cncn1)c1ccc(F)cc1F (configuration not stated) | – | – | – | – | – | 4 | 0.125 (≈ 0.298 µM) | 0.125 (≈ 0.298 µM) | 0.125 (≈ 0.298 µM) | 0.125 (≈ 0.298 µM) | 4 | 4 | 4 | 0.125 (≈ 0.298 µM) | 4 | 4 | 4 | – |
| CCCCOc1ccccc1N1CCN(CCc2nnn(CC(O)(Cn3cncn3)c3ccc(F)cc3F)n2)CC1 (configuration not stated) | – | – | – | – | – | – | – | – | – | – | – | – | – | – | – | – | – | MIC (Pichia kudriavzevii): 1 to 8 µg/mL (≈ 1.76 to 14.1 µM); MIC (Aspergillus fumigatus [19]): 1 to 8 µg/mL (≈ 1.76 to 14.1 µM); MIC (Candida tropicalis [2]; read-out: MIC): 1 to 8 µg/mL (≈ 1.76 to 14.1 µM); MIC (Cryptococcus neoformans [3]; read-out: MIC): 1 to 8 µg/mL (≈ 1.76 to 14.1 µM); MIC (Candida albicans [4]; read-out: MIC): 1 to 8 µg/mL (≈ 1.76 to 14.1 µM) |
| OC(CN(Cc1ccc(F)cc1)C1CC1)(Cn1cncn1)c1ccc(F)cc1F (configuration not stated) | – | – | – | – | – | 4 | 0.125 (≈ 0.311 µM) | 0.125 (≈ 0.311 µM) | 0.125 (≈ 0.311 µM) | 0.125 (≈ 0.311 µM) | 4 | 4 | 4 | 0.125 (≈ 0.311 µM) | 4 | 4 | 4 | – |
| OC(Cn1cncn1)(Cn1cnc(SCc2cccc(F)c2)n1)c1ccc(F)cc1F (configuration not stated) | – | – | – | – | – | – | – | – | – | – | – | – | – | – | – | – | – | MIC (Candida albicans [17]): 0.063 to 1 µg/mL (≈ 0.141 to 2.24 µM); MIC (Candida parapsilosis [18]): 0.063 to 1 µg/mL (≈ 0.141 to 2.24 µM) |
| OC(Cn1cncn1)(Cn1cnc(SCc2ccc(Br)cc2)n1)c1ccc(F)cc1F (configuration not stated) | – | – | – | – | – | – | – | – | – | – | – | – | – | – | – | – | – | MIC (Candida albicans [17]): 0.063 to 1 µg/mL (≈ 0.124 to 1.97 µM); MIC (Candida parapsilosis [18]): 0.063 to 1 µg/mL (≈ 0.124 to 1.97 µM) |
| Cc1ccc(CN(CC(O)(Cn2cncn2)c2ccc(F)cc2F)C2CC2)cc1 (configuration not stated) | – | – | – | – | – | 4 | 0.125 (≈ 0.314 µM) | 0.125 (≈ 0.314 µM) | 0.125 (≈ 0.314 µM) | 0.125 (≈ 0.314 µM) | 4 | 4 | 4 | 0.125 (≈ 0.314 µM) | 4 | 4 | 4 | – |
| Cc1ccc(NC(=O)CN(C)CC(O)(Cn2cncn2)c2ccc(F)cc2F)cc1C (configuration not stated) | 0.25 to 1 (≈ 0.582 to 2.33 µM) | 0.25 to 1 (≈ 0.582 to 2.33 µM) | 0.25 to 1 (≈ 0.582 to 2.33 µM) | 0.0156 (≈ 0.0363 µM) | 0.0156 (≈ 0.0363 µM) | – | – | – | – | – | – | – | – | – | – | – | – | – |
| OC(CN(Cc1ccccc1)C1CC1)(Cn1cncn1)c1ccc(F)cc1F (configuration not stated) | – | – | – | – | – | 4 | 0.125 (≈ 0.325 µM) | 0.125 (≈ 0.325 µM) | 0.125 (≈ 0.325 µM) | 0.125 (≈ 0.325 µM) | 4 | 4 | 4 | 0.125 (≈ 0.325 µM) | 4 | 4 | 4 | – |
| OC(CN(Cc1ccccc1Cl)C1CC1)(Cn1cncn1)c1ccc(F)cc1F (configuration not stated) | – | – | – | – | – | 4 | 0.125 (≈ 0.298 µM) | 0.125 (≈ 0.298 µM) | 0.125 (≈ 0.298 µM) | 0.125 (≈ 0.298 µM) | 4 | 4 | 4 | 0.125 (≈ 0.298 µM) | 4 | 4 | 4 | – |
| CC(C)(C)c1ccc(CN(CC(O)(Cn2cncn2)c2ccc(F)cc2F)C2CC2)cc1 (configuration not stated) | – | – | – | – | – | 4 | 0.125 (≈ 0.284 µM) | 0.125 (≈ 0.284 µM) | 0.125 (≈ 0.284 µM) | 0.125 (≈ 0.284 µM) | 4 | 4 | 4 | 0.125 (≈ 0.284 µM) | 4 | 4 | 4 | – |
| OC(Cn1cncn1)(Cn1cnc(SCc2ccccc2F)n1)c1ccc(F)cc1F (configuration not stated) | – | – | – | – | – | – | – | – | – | – | – | – | – | – | – | – | – | MIC (Candida albicans [17]): 0.063 to 1 µg/mL (≈ 0.141 to 2.24 µM); MIC (Candida parapsilosis [18]): 0.063 to 1 µg/mL (≈ 0.141 to 2.24 µM) |
| CN(CC(=O)Nc1ccc(Cl)c(Cl)c1)CC(O)(Cn1cncn1)c1ccc(F)cc1F (configuration not stated) | 0.25 to 1 (≈ 0.532 to 2.13 µM) | 0.25 to 1 (≈ 0.532 to 2.13 µM) | 0.25 to 1 (≈ 0.532 to 2.13 µM) | 0.0156 (≈ 0.0332 µM) | 0.0156 (≈ 0.0332 µM) | – | – | – | – | – | – | – | – | – | – | – | – | – |
| CN(CC(=O)Nc1ccc(Cl)cc1)CC(O)(Cn1cncn1)c1ccc(F)cc1F (configuration not stated) | 0.25 to 1 (≈ 0.574 to 2.29 µM) | 0.25 to 1 (≈ 0.574 to 2.29 µM) | 0.25 to 1 (≈ 0.574 to 2.29 µM) | 0.0156 (≈ 0.0358 µM) | 0.0156 (≈ 0.0358 µM) | – | – | – | – | – | – | – | – | – | – | – | – | – |

Reference: ChEMBL document CHEMBL4396865, “Current advances of triazole alcohols derived from fluconazole: Design, in vitro and in silico studies” (2019)
